The test deals with T1, GCS (Canis lupus familiaris, UniProt A0A8I3MXG6).
T1 construct: endogenous in cells; host or cells: MDCK (Madin-Darby canine kidney) cells, whole-cell lysate
T1 sequence (A0A8I3MXG6 1-394): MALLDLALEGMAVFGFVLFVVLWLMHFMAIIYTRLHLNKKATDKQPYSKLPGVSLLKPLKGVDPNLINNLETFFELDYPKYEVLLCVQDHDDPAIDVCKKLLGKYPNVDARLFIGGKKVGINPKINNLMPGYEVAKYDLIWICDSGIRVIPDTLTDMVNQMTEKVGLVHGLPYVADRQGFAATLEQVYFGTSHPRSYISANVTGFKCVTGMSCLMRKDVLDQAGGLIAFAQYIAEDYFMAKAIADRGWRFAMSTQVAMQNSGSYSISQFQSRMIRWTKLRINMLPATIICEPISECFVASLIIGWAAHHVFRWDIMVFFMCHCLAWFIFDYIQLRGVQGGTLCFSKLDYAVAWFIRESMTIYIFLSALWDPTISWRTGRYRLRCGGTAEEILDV
Briefly: GCS enzymatic assay (MDCK cell lysate, NBD-ceramide to glucosylceramide, LC/MS). To be noted: Table 2, the table does not say which of the assays; for Data Range (% inhibition): class symbols D, E, F, NA (not active); for IC50: class symbols A, B, C, read-out: Data Range (IC50 values). The test is classed as biochemical, canine. An outline of the steps: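 Dog MDCK cell lysate served as enzyme source, with NBD-ceramide turned over to glucosylceramide and 0.1% DMSO as mock control. The reaction was stopped with acetonitrile. Both lipids were quantified by LC/MS/MS in ESI positive MRM mode against a tolbutamide internal standard, giving IC50 or percent inhibition.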

In the case of `CC(C)Oc1ccc([C@@H](O)[C@@H](CN2CCCC2)NC(=O)[C@H]2CCN(c3ccc(Cl)cc3)C2)cn1` [Compound 29B, (S)-1-(4-chlorophenyl)-N-((1R,2R)-1-hydroxy-1-(6-isopropoxypyridin-3-yl)-3-(pyrrolidin-1-yl)propan-2-yl)pyrrolidine-3-carboxamide], the “Data Range (% inhibition)” value is given as “F (1-49% (or less than 50%))”. Same read-out and setting: under `CCCCN1CCC(C(=O)N[C@H](CN2CCCC2)[C@H](O)c2ccc3c(c2)OCCO3)C1` (stereo partly drawn) [Compound 30, 1-butyl-N-((1R,2R)-1-(2,3-dihydrobenzo[b][1,4]dioxin-6-yl)-1-hydroxy-3-(pyrrolidin-1-yl)propan-2-yl)pyrrolidine-3-carboxamide] stands “NA (not active—a negative value was generated for % inhibition)”. As for `CC(C)Oc1ccc([C@@H](O)[C@@H](CN2CCCC2)NC(=O)[C@@H]2CCN(c3ccc(F)cc3)C2)cn1` [Compound 31, (R)-1-(4-fluorophenyl)-N-((1R,2R)-1-hydroxy-1-(6-isopropoxypyridin-3-yl)-3-(pyrrolidin-1-yl)propan-2-yl)pyrrolidine-3-carboxamide], the half-inhibitory concentration (IC50) is 100 to 1000 nM.

With `O=C(N[C@H](CN1CCCC1)[C@H](O)c1ccc(OC2CCOCC2)c(Cl)c1)[C@@H]1CCN(c2ccc(F)cc2)C1` [Compound 32, (R)-N-((1R,2R)-1-(3-chloro-4-((tetrahydro-2H-pyran-4-yl)oxy)phenyl)-1-hydroxy-3-(pyrrolidin-1-yl)propan-2-yl)-1-(4-fluorophenyl)pyrrolidine-3-carboxamide], the half-inhibitory concentration (IC50) was 1 to 30 nM. With `O=C(N[C@H](CN1CCCC1)[C@H](O)c1ccc(OC2CCOCC2)c(Cl)c1)[C@H]1CCN(c2ccc(F)cc2)C1` [Compound 32A, (S)-N-((1R,2R)-1-(3-chloro-4-((tetrahydro-2H-pyran-4-yl)oxy)phenyl)-1-hydroxy-3-(pyrrolidin-1-yl)propan-2-yl)-1-(4-fluorophenyl)pyrrolidine-3-carboxamide], the “Data Range (% inhibition)” value was “F (1-49% (or less than 50%))”.

`O=C(N[C@H](CN1CCCC1)[C@H](O)c1ccc(OCC(F)(F)F)nc1)[C@@H]1CCN(c2ccc(Cl)cc2)C1` [Compound 33, (R)-1-(4-chlorophenyl)-N-((1R,2R)-1-hydroxy-3-(pyrrolidin-1-yl)-1-(6-(2,2,2-trifluoroethoxy)pyridin-3-yl)propan-2-yl)pyrrolidine-3-carboxamide]: the “Data Range (% inhibition)” value was “F (1-49% (or less than 50%))”. On the same count and under the same terms, under `O=C(N[C@H](CN1CCCC1)[C@H](O)c1ccc(OCC(F)(F)F)nc1)[C@H]1CCN(c2ccc(Cl)cc2)C1` [Compound 33A, (S)-1-(4-chlorophenyl)-N-((1R,2R)-1-hydroxy-3-(pyrrolidin-1-yl)-1-(6-(2,2,2-trifluoroethoxy)pyridin-3-yl)propan-2-yl)pyrrolidine-3-carboxamide] stands “NA (not active—a negative value was generated for % inhibition)”; under `O=C(N[C@H](CN1CCCC1)[C@H](O)c1ccc(OCC(F)(F)F)nc1)[C@@H]1CCN(c2ccc(F)cc2)C1` [Compound 34, (R)-1-(4-fluorophenyl)-N-((1R,2R)-1-hydroxy-3-(pyrrolidin-1-yl)-1-(6-(2,2,2-trifluoroethoxy)pyridin-3-yl)propan-2-yl)pyrrolidine-3-carboxamide], “E (50-74% (or less than 75%))”; under `O=C(N[C@H](CN1CCCC1)[C@H](O)c1ccc(OCC(F)(F)F)nc1)[C@H]1CCN(c2ccc(F)cc2)C1` [Compound 34A, (S)-1-(4-fluorophenyl)-N-((1R,2R)-1-hydroxy-3-(pyrrolidin-1-yl)-1-(6-(2,2,2-trifluoroethoxy)pyridin-3-yl)propan-2-yl)pyrrolidine-3-carboxamide], “NA (not active—a negative value was generated for % inhibition)”.

Consider `O=C(N[C@H](CN1CCCC1)[C@H](O)c1cc(F)c2c(c1)OCCO2)[C@@H]1CCN(c2ccc(F)cc2)C1` [Compound 35, (R)-N-((1R,2R)-1-(8-fluoro-2,3-dihydrobenzo[b][1,4]dioxin-6-yl)-1-hydroxy-3-(pyrrolidin-1-yl)propan-2-yl)-1-(4-fluorophenyl)pyrrolidine-3-carboxamide], for which the IC50 lay within 1 to 30 nM. `O=C(N[C@H](CN1CCCC1)[C@H](O)c1cc(F)c2c(c1)OCCO2)[C@H]1CCN(c2ccc(F)cc2)C1` [Compound 35A, (S)-N-((1R,2R)-1-(8-fluoro-2,3-dihydrobenzo[b][1,4]dioxin-6-yl)-1-hydroxy-3-(pyrrolidin-1-yl)propan-2-yl)-1-(4-fluorophenyl)pyrrolidine-3-carboxamide]: the IC50 fell in the range of 1 to 30 nM.

As to `O=C(N[C@H](CN1CCCC1)[C@H](O)c1ccc2c(c1)OCCO2)[C@@H]1CCN(c2nc3c(s2)CCCC3)C1` [Compound 36, (R)-N-((1R,2R)-1-(2,3-dihydrobenzo[b][1,4]dioxin-6-yl)-1-hydroxy-3-(pyrrolidin-1-yl)propan-2-yl)-1-(4,5,6,7-tetrahydrobenzo[d]thiazol-2-yl)pyrrolidine-3-carboxamide], the “Data Range (% inhibition)” value was “F (1-49% (or less than 50%))”. The same measure, in the same setting: with `O=C(N[C@H](CN1CCCC1)[C@H](O)c1ccc2c(c1)OCCO2)C1CCN(c2nc3c(s2)CCCC3)C1` (stereo partly drawn) [Compound 36F, N-((1R,2R)-1-(2,3-dihydrobenzo[b][1,4]dioxin-6-yl)-1-3-hydroxy-(pyrrolidin-1-yl)propan-2-yl)-1-(4,5,6,7-tetrahydrobenzo[d]thiazol-2-yl)pyrrolidine-3-carboxamide] the entry was “F (1-49% (or less than 50%))”; with `O=C(N[C@H](CN1CCCC1)[C@H](O)c1ccc2c(c1)OCCO2)[C@H]1CCN(c2nc3c(s2)CCCC3)C1` [Compound 36G, (S)-N-((1R,2R)-1-(2,3-dihydrobenzo[b][1,4]dioxin-6-yl)-1-hydroxy-3-(pyrrolidin-1-yl)propan-2-yl)-1-(4,5,6,7-tetrahydrobenzo[d]thiazol-2-yl)pyrrolidine-3-carboxamide], “NA (not active—a negative value was generated for % inhibition)”; with `O=C(N[C@H](CN1CCCCC1)[C@H](O)c1ccc2c(c1)OCCO2)[C@@H]1CCN(c2ccc(Cl)cc2)C1` [Compound 43, (R)-1-(4-chlorophenyl)-N-((1R,2R)-1-(2,3-dihydrobenzo[b][1,4]dioxin-6-yl)-1-hydroxy-3-(piperidin-1-yl)propan-2-yl)pyrrolidine-3-carboxamide], “F (1-49% (or less than 50%))”. The same measure, in the same setting: under `O=C(N[C@H](CN1CCCCC1)[C@H](O)c1ccc2c(c1)OCCO2)C1CCN(c2ccc(Cl)cc2)C1` (stereo partly drawn) [Compound 43D, 1-(4-chlorophenyl)-N-((1R,2R)-1-(2,3-dihydrobenzo[b][1,4]dioxin-6-yl)-1-hydroxy-3-(piperidin-1-yl)propan-2-yl)pyrrolidine-3-carboxamide] stands “F (1-49% (or less than 50%))”; under `O=C(N[C@H](CN1CCCCC1)[C@H](O)c1ccc2c(c1)OCCO2)[C@H]1CCN(c2ccc(Cl)cc2)C1` [Compound 43E, (S)-1-(4-chlorophenyl)-N-((1R,2R)-1-(2,3-dihydrobenzo[b][1,4]dioxin-6-yl)-1-hydroxy-3-(piperidin-1-yl)propan-2-yl)pyrrolidine-3-carboxamide], “F (1-49% (or less than 50%))”; under `O=C(N[C@H](CN1CCCCC1)[C@H](O)c1cc(F)c2c(c1)OCCO2)[C@@H]1CCN(c2ccc(Cl)cc2)C1` [Compound 44, (R)-1-(4-chlorophenyl)-N-((1R,2R)-1-(8-fluoro-2,3-dihydrobenzo[b][1,4]dioxin-6-yl)-1-hydroxy-3-(piperidin-1-yl)propan-2-yl)pyrrolidine-3-carboxamide], “F (1-49% (or less than 50%))”. Turning to `O=C(N[C@H](CN1CCCCC1)[C@H](O)c1cc(F)c2c(c1)OCCO2)[C@H]1CCN(c2ccc(Cl)cc2)C1` [Compound 44C, (S)-1-(4-chlorophenyl)-N-((1R,2R)-1-(8-fluoro-2,3-dihydrobenzo[b][1,4]dioxin-6-yl)-1-hydroxy-3-(piperidin-1-yl)propan-2-yl)pyrrolidine-3-carboxamide], the “Data Range (% inhibition)” value is “NA (not active—a negative value was generated for % inhibition)”.

In the case of `O=C(N[C@H](CN1CCCC1)[C@H](O)c1ccc(OC2CCOCC2)c(Cl)c1)[C@@H]1CCN(c2ccc(Cl)cc2)C1` [Compound 45, (R)-N-((1R,2R)-1-(3-chloro-4-((tetrahydro-2H-pyran-4-yl)oxy)phenyl)-1-hydroxy-3-(pyrrolidin-1-yl)propan-2-yl)-1-(4-chlorophenyl)pyrrolidine-3-carboxamide], the IC50 lay within 1 to 30 nM.

`O=C(N[C@H](CN1CCCC1)[C@H](O)c1ccc(OC2CCOCC2)c(Cl)c1)[C@H]1CCN(c2ccc(Cl)cc2)C1` [Compound 45A, (S)-N-((1R,2R)-1-(3-chloro-4-((tetrahydro-2H-pyran-4-yl)oxy)phenyl)-1-hydroxy-3-(pyrrolidin-1-yl)propan-2-yl)-1-(4-chlorophenyl)pyrrolidine-3-carboxamide]: the “Data Range (% inhibition)” value was “F (1-49% (or less than 50%))”. On the same count and under the same terms, under `O=C(N[C@H](CN1CCCCC1)[C@H](O)c1ccc2c(c1)OCCO2)[C@@H]1CCN(c2ccc(F)cc2)C1` [Compound 46, (R)-N-((1R,2R)-1-(2,3-dihydrobenzo[b][1,4]dioxin-6-yl)-1-hydroxy-3-(piperidin-1-yl)propan-2-yl)-1-(4-fluorophenyl)pyrrolidine-3-carboxamide] stands “F (1-49% (or less than 50%))”.

The term IC50 denotes the midpoint of a concentration-inhibition curve.
